Source: patent publication US11974551B2, “L-serine compositions, methods and uses for treating neurodegenerative diseases and disorders” (priority 2011, dated 2024)
“Also recorded” adds a separate entry of the source.

Legend:
Drosophila fruit flies = assay: Fruit fly feeding: mortality after three days; type: in vivo, Drosophila melanogaster; details: media with 25 mM BMAA and 25 mM L-Serine, three days
Description: Preliminary studies show the ability of L-Serine to prevent misincorporation of BMAA into proteins. In a series of feeding experiments, Drosophila fruit flies were fed four different types of media: 1) standard fruit fly media with 0 mM BMAA (control), 2) media enriched with 25 mM L-Serine, 3) media with 25 mM BMAA added, and 4) media with both 25 mM BMAA and 25 mM L-Serine added for three days of feeding. Misincorporation of BMAA into proteins was then analyzed using triple quadrupole LC/MS/MS and Orbital Trap LC/MS/MS.
Equally interesting is the analysis of the protective value of L-Serine on Drosophila dosed with BMAA. Fruit flies fed with BMAA enriched media (third set of blocks) suffered a 40% mortality after three days, while flies fed with Serine plus BMAA (fourth set of blocks) had no mortality (FIG. 8). These flies were rescued by L-Serine.

MRC-5 cells = assay: Incorporation of 3H-BMAA radiolabel into cell proteins (TCA precipitation, liquid scintillation counting); type: cell-based, human; details: 3H-BMAA 31.25 nM, 16 hours
Description: MRC-5 cells were incubated with ^3H-BMAA (31.25 nM) in HBSS containing 10% FCS. After 2, 4, and 16 hours, cells were washed three times in phosphate buffered saline and lysed by freeze-thawing in Triton X-100. The protein concentration in the lysate was determined using the bicinchoninic acid assay (BCA) (Smith, et al., Anal Biochem 150, 76-85 (1985)) (and radiolabel in the cell lysate quantified by liquid scintillation counting (LSC). Cell proteins were then isolated by trichloroacetic acid (TCA) (5%) precipitation washed three times in TCA (5%) and dissolved in formic acid.
To determine if incorporation of radiolabel into proteins was protein synthesis dependent MRC-5, SH-SY5Y and HUVEC cells were incubated with ^3H-BMAA (31.25 nM) with or without CHX 2 μg/ml for 16 hours. The amount of radiolabel present in cell proteins in the CHM-treated cultures was expressed relative to that of control cultures, which was set at 100%. Parallel cultures of MRC-5 cells were incubated with ^3H-leucine (41 nM) with or without CHX 2 μg/ml under identical culture conditions and processed as before.
To examine the ability of individual amino acids to reduce incorporation or radiolabel into proteins, MRC-5 cells were incubated with ^3H-BMAA (31.25 nM) for 16 hours in the presence of individual amino acids (250 μM) and the radiolabel present in the cell proteins assessed as before. All of the 20 protein amino acids (L-isomers) were examined individually in triplicate cell cultures. […] Incorporation of radiolabel was determined relative to cells incubated in medium containing no serine. MRC-5 cells were then incubated with ^3H-BMAA (31.25 nM) for 16 hours in HBSS alone, HBSS containing all 20 protein amino acids (400 μM) or 19 protein amino acids except L-serine and the amount of radiolabel in cell protein assessed as before.

N[C@@H](CO)C(=O)O [L-serine]
mortality of flies fed BMAA plus L-Serine (Drosophila fruit flies): blocks BMAA induced mortality
mortality of flies fed BMAA plus L-Serine (Drosophila fruit flies; listed as L-Serine): no mortality
incorporation of BMAA into proteins when L-serine was omitted from the amino acid mixture (MRC-5 cells; 19 protein amino acids 400 μM without L-serine): significantly increased
effect on incorporation of 3H-BMAA into cell proteins (MRC-5 cells; L-serine 0, 50, 100 and 250 μM): inhibited in the presence of L-serine in a concentration-dependent manner; also recorded: inhibition of incorporation of radiolabel into cell proteins
